# Source: PubChem BioAssay (NCI)
#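 The compound was tested at five concentrations on cells cultured in 96-well plates, with a 48-hour exposure period. GI50 = concentration required for 50% inhibition of growth. TGI denotes the concentration required for complete inhibition of growth.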
# What was measured:
# Test in all cases: NCI-60 cell line screen, 48 h
# OVCAR-5 ovarian = system: OVCAR-5 ovarian
# MCF7 breast = system: MCF7 breast
# T-47D breast = system: T-47D breast
# KM12 colon = system: KM12 colon
# 786-0 renal = system: 786-0 renal
# SK-MEL-28 melanoma = system: SK-MEL-28 melanoma
# HS 578T breast = system: HS 578T breast
# MOLT-4 leukemia = system: MOLT-4 leukemia
# NCI/ADR-RES ovarian = system: NCI/ADR-RES ovarian
# OVCAR-4 ovarian = system: OVCAR-4 ovarian
# IGROV1 ovarian = system: IGROV1 ovarian
# TK-10 renal = system: TK-10 renal
# A498 renal = system: A498 renal
# EKVX NSCLC = system: EKVX NSCLC
# SK-OV-3 ovarian = system: SK-OV-3 ovarian
# HCT-15 colon = system: HCT-15 colon
# SK-MEL-5 melanoma = system: SK-MEL-5 melanoma
# U251 CNS = system: U251 CNS
# UACC-257 melanoma = system: UACC-257 melanoma
# K-562 leukemia = system: K-562 leukemia
# SF-295 CNS = system: SF-295 CNS
# ACHN renal = system: ACHN renal
# MDA-MB-231 breast = system: MDA-MB-231 breast
# CAKI-1 renal = system: CAKI-1 renal
# LOX IMVI melanoma = system: LOX IMVI melanoma
# OVCAR-3 ovarian = system: OVCAR-3 ovarian
# SF-539 CNS = system: SF-539 CNS
# SR leukemia = system: SR leukemia
# COLO 205 colon = system: COLO 205 colon
# NCI-H23 lung = system: NCI-H23 lung
# A549 NSCLC = system: A549 NSCLC
# PC-3 prostate = system: PC-3 prostate
# SNB-19 CNS = system: SNB-19 CNS
# DU-145 prostate = system: DU-145 prostate
# HOP-62 NSCLC = system: HOP-62 NSCLC
# NCI-H226 lung = system: NCI-H226 lung
# NCI-H460 lung = system: NCI-H460 lung
# SK-MEL-2 melanoma = system: SK-MEL-2 melanoma
# SN12C renal = system: SN12C renal
# SW-620 colon = system: SW-620 colon
# UO-31 renal = system: UO-31 renal
# CCRF-CEM leukemia = system: CCRF-CEM leukemia
# OVCAR-8 ovarian = system: OVCAR-8 ovarian
# HCC-2998 colon = system: HCC-2998 colon
# BT-549 breast = system: BT-549 breast
# UACC-62 melanoma = system: UACC-62 melanoma
# MDA-MB-435 = system: MDA-MB-435
# M14 melanoma = system: M14 melanoma
# HCT-116 colon = system: HCT-116 colon
# SNB-75 CNS = system: SNB-75 CNS
# HOP-92 NSCLC = system: HOP-92 NSCLC
# NCI-H522 lung = system: NCI-H522 lung
# HT29 colon = system: HT29 colon
# RPMI-8226 leukemia = system: RPMI-8226 leukemia
# MALME-3M melanoma = system: MALME-3M melanoma
# HL-60(TB) leukemia = system: HL-60(TB) leukemia
# SF-268 CNS = system: SF-268 CNS
smiles,measurement,setting,value
COc1ccc(CN(Cc2ccc(OC)cc2)C(=O)CC2(O)CCc3ccccc3C2)cc1 (configuration not stated),TGI,OVCAR-5 ovarian,> 100 µM
same,TGI,MCF7 breast,> 100 µM
same,TGI,T-47D breast,> 100 µM
same,TGI,KM12 colon,> 100 µM
same,TGI,786-0 renal,> 100 µM
same,TGI,SK-MEL-28 melanoma,> 100 µM
same,TGI,HS 578T breast,> 100 µM
same,TGI,MOLT-4 leukemia,56 µM
same,TGI,NCI/ADR-RES ovarian,> 100 µM
same,TGI,OVCAR-4 ovarian,> 100 µM
same,TGI,IGROV1 ovarian,> 100 µM
same,TGI,TK-10 renal,> 100 µM
same,TGI,A498 renal,> 100 µM
same,TGI,EKVX NSCLC,> 100 µM
same,TGI,SK-OV-3 ovarian,> 100 µM
same,TGI,HCT-15 colon,> 100 µM
same,TGI,SK-MEL-5 melanoma,> 100 µM
same,TGI,U251 CNS,> 100 µM
same,TGI,UACC-257 melanoma,> 100 µM
same,TGI,K-562 leukemia,> 100 µM
same,TGI,SF-295 CNS,> 100 µM
same,TGI,ACHN renal,> 100 µM
same,TGI,MDA-MB-231 breast,> 100 µM
same,TGI,CAKI-1 renal,> 100 µM
same,TGI,LOX IMVI melanoma,> 100 µM
same,TGI,OVCAR-3 ovarian,> 100 µM
same,TGI,SF-539 CNS,> 100 µM
same,TGI,SR leukemia,> 100 µM
same,TGI,COLO 205 colon,57.4 µM
same,TGI,NCI-H23 lung,> 100 µM
same,TGI,A549 NSCLC,> 100 µM
same,TGI,PC-3 prostate,> 100 µM
same,TGI,SNB-19 CNS,> 100 µM
same,TGI,DU-145 prostate,> 100 µM
same,TGI,HOP-62 NSCLC,> 100 µM
same,TGI,NCI-H226 lung,> 100 µM
same,TGI,NCI-H460 lung,> 100 µM
same,TGI,SK-MEL-2 melanoma,> 100 µM
same,TGI,SN12C renal,> 100 µM
same,TGI,SW-620 colon,> 100 µM
same,TGI,UO-31 renal,> 100 µM
same,TGI,CCRF-CEM leukemia,> 100 µM
same,TGI,OVCAR-8 ovarian,> 100 µM
same,TGI,HCC-2998 colon,> 100 µM
same,TGI,BT-549 breast,> 100 µM
same,TGI,UACC-62 melanoma,> 100 µM
same,TGI,MDA-MB-435,> 100 µM
same,TGI,M14 melanoma,> 100 µM
same,TGI,HCT-116 colon,> 100 µM
same,TGI,SNB-75 CNS,> 100 µM
same,TGI,HOP-92 NSCLC,> 100 µM
same,TGI,NCI-H522 lung,> 100 µM
same,TGI,HT29 colon,> 100 µM
same,TGI,RPMI-8226 leukemia,> 100 µM
same,TGI,MALME-3M melanoma,> 100 µM
same,TGI,HL-60(TB) leukemia,80.1 µM
O=C(O)c1ccc2nc(-c3ccc(OCCCCCOc4ccc(-c5nc6ccc(C(=O)O)cc6[nH]5)cc4)cc3)[nH]c2c1,GI50,OVCAR-5 ovarian,> 100 µM
same,TGI,OVCAR-5 ovarian,> 100 µM
same,GI50,MCF7 breast,> 100 µM
same,TGI,MCF7 breast,> 100 µM
same,GI50,T-47D breast,> 100 µM
same,TGI,T-47D breast,> 100 µM
same,GI50,KM12 colon,> 100 µM
same,TGI,KM12 colon,> 100 µM
same,GI50,786-0 renal,> 100 µM
same,TGI,786-0 renal,> 100 µM
same,GI50,SK-MEL-28 melanoma,> 100 µM
same,TGI,SK-MEL-28 melanoma,> 100 µM
same,GI50,HS 578T breast,> 100 µM
same,TGI,HS 578T breast,> 100 µM
same,GI50,MOLT-4 leukemia,29.7 µM
same,TGI,MOLT-4 leukemia,> 100 µM
same,GI50,NCI/ADR-RES ovarian,> 100 µM
same,TGI,NCI/ADR-RES ovarian,> 100 µM
same,GI50,OVCAR-4 ovarian,> 100 µM
same,TGI,OVCAR-4 ovarian,> 100 µM
same,GI50,TK-10 renal,> 100 µM
same,TGI,TK-10 renal,> 100 µM
same,GI50,A498 renal,> 100 µM
same,TGI,A498 renal,> 100 µM
same,GI50,EKVX NSCLC,> 100 µM
same,TGI,EKVX NSCLC,> 100 µM
same,GI50,SK-OV-3 ovarian,> 100 µM
same,TGI,SK-OV-3 ovarian,> 100 µM
same,GI50,HCT-15 colon,> 100 µM
same,TGI,HCT-15 colon,> 100 µM
same,GI50,SK-MEL-5 melanoma,> 100 µM
same,TGI,SK-MEL-5 melanoma,> 100 µM
same,GI50,U251 CNS,> 100 µM
same,TGI,U251 CNS,> 100 µM
same,GI50,UACC-257 melanoma,> 100 µM
same,TGI,UACC-257 melanoma,> 100 µM
same,GI50,K-562 leukemia,22.3 µM
same,TGI,K-562 leukemia,> 100 µM
same,GI50,SF-295 CNS,> 100 µM
same,TGI,SF-295 CNS,> 100 µM
same,GI50,ACHN renal,> 100 µM
same,TGI,ACHN renal,> 100 µM
same,GI50,MDA-MB-231 breast,> 100 µM
same,TGI,MDA-MB-231 breast,> 100 µM
same,GI50,CAKI-1 renal,> 100 µM
same,TGI,CAKI-1 renal,> 100 µM
same,GI50,LOX IMVI melanoma,> 100 µM
same,TGI,LOX IMVI melanoma,> 100 µM
same,GI50,OVCAR-3 ovarian,> 100 µM
same,TGI,OVCAR-3 ovarian,> 100 µM
same,GI50,SF-539 CNS,> 100 µM
same,TGI,SF-539 CNS,> 100 µM
same,GI50,SR leukemia,22.3 µM
same,TGI,SR leukemia,48.6 µM
same,GI50,COLO 205 colon,> 100 µM
same,TGI,COLO 205 colon,> 100 µM
same,GI50,NCI-H23 lung,> 100 µM
same,TGI,NCI-H23 lung,> 100 µM
same,GI50,PC-3 prostate,> 100 µM
same,TGI,PC-3 prostate,> 100 µM
same,GI50,SNB-19 CNS,> 100 µM
same,TGI,SNB-19 CNS,> 100 µM
same,GI50,DU-145 prostate,> 100 µM
same,TGI,DU-145 prostate,> 100 µM
same,GI50,HOP-62 NSCLC,> 100 µM
same,TGI,HOP-62 NSCLC,> 100 µM
same,GI50,NCI-H226 lung,> 100 µM
same,TGI,NCI-H226 lung,> 100 µM
same,GI50,NCI-H460 lung,> 100 µM
same,TGI,NCI-H460 lung,> 100 µM
same,GI50,SK-MEL-2 melanoma,> 100 µM
same,TGI,SK-MEL-2 melanoma,> 100 µM
same,GI50,SN12C renal,> 100 µM
same,TGI,SN12C renal,> 100 µM
same,GI50,SW-620 colon,> 100 µM
same,TGI,SW-620 colon,> 100 µM
same,GI50,UO-31 renal,> 100 µM
same,TGI,UO-31 renal,> 100 µM
same,GI50,SF-268 CNS,> 100 µM
same,TGI,SF-268 CNS,> 100 µM
same,GI50,CCRF-CEM leukemia,18.8 µM
same,TGI,CCRF-CEM leukemia,44.2 µM
same,GI50,OVCAR-8 ovarian,> 100 µM
same,TGI,OVCAR-8 ovarian,> 100 µM
same,GI50,HCC-2998 colon,> 100 µM
same,TGI,HCC-2998 colon,> 100 µM
same,GI50,BT-549 breast,> 100 µM
same,TGI,BT-549 breast,> 100 µM
same,GI50,UACC-62 melanoma,> 100 µM
same,TGI,UACC-62 melanoma,> 100 µM
same,GI50,MDA-MB-435,> 100 µM
same,TGI,MDA-MB-435,> 100 µM
same,GI50,M14 melanoma,> 100 µM
same,TGI,M14 melanoma,> 100 µM
same,GI50,HCT-116 colon,> 100 µM
same,TGI,HCT-116 colon,> 100 µM
same,GI50,SNB-75 CNS,> 100 µM
same,TGI,SNB-75 CNS,> 100 µM
same,GI50,NCI-H522 lung,> 100 µM
same,TGI,NCI-H522 lung,> 100 µM
same,GI50,HT29 colon,> 100 µM
same,TGI,HT29 colon,> 100 µM
same,GI50,MALME-3M melanoma,> 100 µM
same,TGI,MALME-3M melanoma,> 100 µM
same,GI50,HL-60(TB) leukemia,> 100 µM
same,TGI,HL-60(TB) leukemia,> 100 µM
